Test results taken from patent US20090270386A1, “THERAPEUTIC COMPOUNDS” (ALLERGAN, INC., priority 2008, published 2009).

Key:
[1] = test system: normotensive dogs; test: Intraocular pressure reduction in normotensive dogs; format: in vivo
Protocol: U.S. Pat. No. 7,091,231 describes the methods used for these in vivo tests.
Compounds such as those described in the above are tested in vivo to measure its ability to reduce intraocular pressure. Compound 14a is tested in normotensive dogs.

[2] = test system: laser-induced hypertensive monkeys; test: Intraocular pressure reduction in laser-induced hypertensive monkeys; format: in vivo
[3] = test system: lashes and adjacent hairs of glaucoma patients; test: Observation of eyelash/hair growth in glaucoma patients treated in one eye; format: in vivo, humans; details: glaucoma patients treated unilaterally
Source text: In the course of treating patients having glaucoma, treatment may only be appropriate in one eye. […] The lash appearance on the lids of the treated eyes would have appeared quite attractive if it represented a bilateral phenomenon. As a result of its asymmetric nature, the long lashes on one side could be construed as disturbing from a cosmetic standpoint. A systemic examination was preformed as a result of the asymmetric phenomenon. It soon became apparent that this altered appearance was not an isolated finding. […] Definite differences could be identified to varying degrees in the lashes and adjacent hairs of all patients who were taking the drug on a unilateral basis for longer than 6 months.
The changes in the lashes were apparent on gross inspection in several patients once attention was focused on the issue. In those with light colored hair and lashes, the differences were only seen easily with the aid of the high magnification and lighting capabilities of the slit lamp biomicroscope. In the course of glaucoma follow-up examination, attention is generally immediately focused on the eye itself. As a result of the high power magnification needed only one eye is seen at a time and the eye is seen at a high enough power that the lashes are not in focus. […]

SMILES	intraocular pressure (IOP) change from baseline [1]	IOP change from baseline [2]	lash appearance in treated eye versus non-treated eye [3]
COCc1cc(Cl)cc(OCC2C(O)CC(Cl)C2CC=CCCCC(=O)OCCN2CCOCC2)c1 (centres unmarked) [Compound 22b]	decreases from baseline	decreases from baseline	–
O=C(OCCO)c1ccc(CCCC2C(F)CC(O)C2COc2cc(Cl)cc(Cl)c2)s1 (centres unmarked) [Compound 70a]	decreases from baseline	decreases from baseline	–
O=C(OCCN1CCOCC1)c1ccc(CCCC2C(Cl)CCC2COc2cc(Cl)cc(CO)c2)s1 (centres unmarked) [Compound 51b]	decreases from baseline	decreases from baseline	–
O=C(OCCN1CCOCC1)c1ccc(CCCC2=CCC(O)C2COc2cc(Cl)cc(Cl)c2)s1 (centres unmarked) [Compound 68b]	decreases from baseline	decreases from baseline	–
O=C(OCCN1CCOCC1)c1ccc(CCCC2C(Cl)CC(O)C2COc2cc(Cl)cc(Cl)c2)s1 (centres unmarked) [Compound 33b]	decreases from baseline	decreases from baseline	–
CC(=O)OCCc1cc(Cl)cc(OCC2C(O)CC(Cl)C2CC=CCCCC(=O)OCCO)c1 (centres unmarked) [Compound 16a]	decreases from baseline	decreases from baseline	–
COCc1cc(Cl)cc(OCC2C(O)CC(Cl)C2CC=CCCCC(=O)OCCO)c1 (centres unmarked) [Compound 22a]	decreases from baseline	decreases from baseline	–
CC(=O)OCCc1cc(Cl)cc(OCC2C(O)CC(Cl)C2CC=CCCCC(=O)OCCN2CCOCC2)c1 (centres unmarked) [Compound 16b]	decreases from baseline	decreases from baseline	–
O=C(OCCN1CCOCC1)c1ccc(CCCC2C(=O)CCC2COc2cc(Cl)cc(CO)c2)s1 (centres unmarked) [Compound 46b]	decreases from baseline	decreases from baseline	–
N#CC1CC(O)C(COc2cc(Cl)cc(Cl)c2)C1CCCc1ccc(C(=O)OCCO)s1 (centres unmarked) [Compound 58a]	decreases from baseline	decreases from baseline	–
O=C(OCCN1CCOCC1)c1ccc(CCCC2C(Cl)CC(O)C2COc2cc(Cl)cc(CO)c2)s1 (centres unmarked) [Compound 34b]	decreases from baseline	decreases from baseline	–
CCNC(=O)CCC/C=C\C[C@@H]1[C@@H](/C=C/[C@@H](O)CCc2ccccc2)[C@H](O)C[C@@H]1O [bimatoprost]	–	–	longer, thicker, and fuller in the treated eye
Cc1cc(C)cc(OCC2C(O)CC(Cl)C2CCCc2ccc(C(=O)OCCO)s2)c1 (centres unmarked) [Compound 35a]	decreases from baseline	decreases from baseline	–
O=C(OCCO)c1ccc(CCCC2C(Cl)CC(O)C2COc2cc(Cl)cc(Cl)c2)s1 (centres unmarked) [Compound 33a]	decreases from baseline	decreases from baseline	–
O=C(OCCO)c1ccc(CCCC2=CCC(O)C2COc2cc(Cl)cc(Cl)c2)s1 (centres unmarked) [Compound 68a]	decreases from baseline	decreases from baseline	–
O=C(OCCO)c1ccc(CCCC2C(Cl)CCC2COc2cc(Cl)cc(CO)c2)s1 (centres unmarked) [Compound 51a]	decreases from baseline	decreases from baseline	–
O=C(OCCO)c1ccc(CCCC2C(=O)CCC2COc2cc(Cl)cc(CO)c2)s1 (centres unmarked) [Compound 46a]	decreases from baseline	decreases from baseline	–
N#CC1CC(O)C(COc2cc(Cl)cc(Cl)c2)C1CCCc1ccc(C(=O)OCCN2CCOCC2)s1 (centres unmarked) [Compound 58b]	decreases from baseline	decreases from baseline	–
O=C(OCCO)c1ccc(CCCC2C(Cl)CC(O)C2COc2cc(Cl)cc(CO)c2)s1 (centres unmarked) [Compound 34a]	decreases from baseline	decreases from baseline	–
O=C(OCCN1CCOCC1)c1ccc(CCCC2C(F)CC(O)C2COc2cc(Cl)cc(Cl)c2)s1 (centres unmarked) [Compound 70b]	decreases from baseline	decreases from baseline	–
Cc1cc(C)cc(OCC2C(O)CC(Cl)C2CCCc2ccc(C(=O)OCCN3CCOCC3)s2)c1 (centres unmarked) [Compound 35b]	decreases from baseline	decreases from baseline	–
